According to patent US7323457B2, “Substituted sulfonamides and ureas useful for inhibiting kinase activity” (Aventis Pharmaceuticals Inc., priority 2001, dated 2008):

Molecular target: Src Kinase (p60^C-Src) (Homo sapiens, UniProt P12931)
Assay: Src kinase DELFIA time-resolved fluorometric assay
Format: biochemical
Conditions: Src kinase inhibitory activity; 100 μM ATP, poly(Glu, Tyr) 4:1 substrate, 15 min at room temp.; read-out: Activity (μMol, Delfia assay. IC50)
Procedure: The compounds 1-25 above were assayed for activity with respect to the Src protein tyrosine kinase by the fluorometric method described in Measurement of the Protein Tyrosine Kinase Activity of c-Src Using Time-Resolved Fluorometry of Europium Chelates, Braunwalder, A.F. et al., Analytical Biochemistry 238, 159-164 (1996), the disclosure of which is incorporated herein by reference, using the materials and procedures further specified below.
General Assay Method for Src-Kinase:
• Costar 384 Clear, non-treated, high-binding plates • Sigma poly(Glu, Tyr) 4:1, ave. MW 35,000 • Src Kinase (p60^C-Src) • Sigma ATP (1.5 mM Stock Soln. in H2O) • MES Buffer: 30 mM MES (pH 6.8) • 10 mM MgCl2 • MBI Buffer: (MES+0.4 mg/ml BSA+0.003% IGEPAL) • Wallac Eu-labelled anti-phosphotyrosine Antibody (CR04-100) • Coating Solution: • 22.5 mM Na2CO3 (pH 9.6) • 27.5 mM NaHCO3 • 0.9% NaCl • Antibody Dilution Buffer: (MES+3% BSA) • DELFIA® Wash Solution (TTBS): • 0.5 M NaCl • 20 mM Tris (pH7.4) • 0.15% Tween 20 • DELFIA Enhancement Solution Method:
The plates were coated with 0.1 mg/ml poly(Glu, Tyr) in Coating Solution, 35 μl/well. […]
The reaction was stopped by aspiration, and then washed 3 times with MES (100 μl/wash). […] 20 μl DELFIA enhancement solution was added and the plates were read on a Wallac Victor plate reader in time-resolved fluorescence mode using 340 nm excitation and 615 nm emission wavelengths.

[4-(Piperidin-4-yl)carbonyl-1-[[2-(4-phenylbutanoyl) amino]-4-[(1-aminocarbonyl-2-(naphth-2-yl))ethylamino]-carbonylaminophenyl]homopiperazine [Example 21]
IC50: 22 µM
